Legend:
BALB/c and C57BL/6 mice = test: Contact hypersensitivity (CHS) ear response to DNFB in mice; assay type: in vivo, mouse; settings: 0.5 mg/kg i.p. at challenge, 24 hours after challenge, FIG. 4
Procedure: The functional effect of this differential effect on B7-1 and B7-2 mediated by RIB was examined in an in vivo murine model of contact hypersensitivity, and a B7-2 dependent immune response (Eur. J. Immunol, 1996. 26: 880-885). Briefly, animals were primed with 2,4-dinitro-1-fluorobenzene (DNFB) (0.3%) epicutaneously on the abdomen and challenged 6 days later on each ear with 0.12% DNFB. Ribavirin-treated animals were injected intraperitoneally at the time of challenge with an optimal dose of 0.5 mg/kg in 50 μl PBS. Ear measurements were taken before challenge and 24 hours after challenge. Response to DNFB was expressed as the difference between the two ear measurements. […] Ear responses in BALB/c mice were augmented following ribavirin (RIB) treatment but were impaired in ribavirin-treated C57BL/6 mice.

B7-2 [1] = test: B7-2 expression by FACS in lymph node cells from DNFB-primed mice, in vitro anti-αβ TCR challenge; assay type: cell-based, mouse; settings: BALB/c lymph node cells, ribavirin 5 μM, FIG. 3 top panel
Procedure: (§1) The effect of ribavirin on B7-1 expression and B7-2 expression, at the time of challenge, in lymph node cells isolated from Ag-primed BALBc and C57BL/6 mice was examined. Mice were primed epicutaneously with dinitrofluorobenzene (DNFB) 6 days prior to concomitant ribavirin treatment (5 μM) and in vitro challenge using an immobilized anti-αβ TCR antibody. Unexpectedly, we observed opposing effects of ribavirin on DNFB-induced B7-1 expression and B7-2 expression in these two mouse strains.

B7-2 [2] = test: B7-2 expression by FACS in IFNα-treated splenocytes from unstimulated mice; assay type: cell-based, mouse; settings: with IFNα
Source text: (§2) We determined the levels of […] and B7-2 by FACS analysis from IFNα-treated splenocytes from unstimulated BALB/c and C57B6 mice in order to determine whether the effect of ribavirin on the functional role of B7-1 and […] was a) inducible in resting, unstimulated lymphocytes, b) required the action of a B7 inducer such as IFNα, or c) elicited the same affects on the two mouse strains upon replacing antigen stimulation with a B7 inducer. […] In contrast, in C57BL/6 splenocytes (bottom panel), IFNα-induced B7-1 expression was enhanced by ribavirin but B7-2 expression was unaffected.

B7-1 [3] = test: B7-1 expression by FACS in lymph node cells from DNFB-primed mice, in vitro anti-αβ TCR challenge; assay type: cell-based, mouse; settings: C57BL/6 lymph node cells, ribavirin 5 μM, FIG. 3 bottom panel
Procedure: as §1

B7-1 [4] = test: B7-1 expression by FACS in IFNα-treated splenocytes from unstimulated mice; assay type: cell-based, mouse; settings: C57BL/6 splenocytes, with IFNα, FIG. 6 bottom panel
Source text: as §2

B7-2 mRNA = B7-2 mRNA (RT-PCR/Southern) in lymph node cells of ribavirin-treated CHS mice; assay type: in vivo, mouse; settings: FIG. 5
Procedure: (§3) To determine the effect of ribavirin on the functional role of B7-1 and B7-2 on contact hypersensitivity (CHS) responses, we measured B7-1 and B7-2 mRNA levels in RNA isolated from the lymph node cells of the animals used in the above CHS experiments. Following RT-PCR with specific primers, electrophoresis and Southern blotting, PCR products were analyzed by hybridization with 32P-labeled specific probes. […] In contrast, in C57BL/6 mice, B7-1 mRNA expression was enhanced by ribavirin, but B7-2 mRNA expression was unaffected.

IL-10 = IL-10 levels in human PBMCs with B7-inducing cytokines; assay type: cell-based
Source text: (§4) The differential effect by ribavirin on B7-1 and B7-2 expression as observed in the two mouse strains was examined in human peripheral blood mononuclear cells (PBMCs). Here we used three cytokines, IFNα, IFNβ, and TNFα to induce B7-1 and B7-2 expression. […] Two distinct outcomes were observed.

B7-2 [5] = test: B7-2 mRNA (RT-PCR) in human PBMCs with B7-inducing cytokines; assay type: cell-based
Source text: as §4

TNFα = TNFα levels in human PBMCs with B7-inducing cytokines; assay type: cell-based
Source text: as §4

B7-1 [6] = test: B7-1 mRNA (RT-PCR) in human PBMCs with B7-inducing cytokines; assay type: cell-based
Source text: as §4

B7-1 mRNA = B7-1 mRNA (RT-PCR/Southern) in lymph node cells of ribavirin-treated CHS mice; assay type: in vivo, mouse; settings: FIG. 5
Procedure: as §3

[7] = BALB/c mice of the CHS experiment
[8] = C57BL/6 mice of the CHS experiment
[9] = 24 hour incubation with B7-inducing cytokines, FIG. 7 right hand panel (B)
[10] = 24 hour incubation with IFNα, IFNβ or TNFα, FIG. 7 left panel (A)

NC(=O)c1ncn([C@@H]2O[C@H](CO)[C@@H](O)[C@H]2O)n1 [ribavirin, 1-β-D-Ribofuranosyl-1,2,4-Triazole-3-Carboxamide]
Inflammatory ear response to DNFB (BALB/c and C57BL/6 mice; BALB/c mice): augmented
Inflammatory ear response to DNFB (BALB/c and C57BL/6 mice; C57BL/6 mice): impaired
B7-2 expression (mean channel fluorescence) (B7-2 [1]): enhanced B7-2 expression
IFNα-induced B7-2 expression (B7-2 [2]; BALB/c splenocytes, FIG. 6 top panel): augmented
IFNα-induced B7-2 expression (B7-2 [2]; C57BL/6 splenocytes, FIG. 6 bottom panel): unaffected
B7-1 expression (mean channel fluorescence) (B7-1 [3]): enhanced B7-1 expression
IFNα-induced B7-1 expression (B7-1 [4]): enhanced
B7-2 mRNA expression in lymph node cells (B7-2 mRNA; [7]): augmented
B7-2 mRNA expression in lymph node cells (B7-2 mRNA; [8]): unaffected
IL-10 levels (IL-10; [9]): dropped
IL-10 (IL-10; [10]): concomitant increase
B7-2 expression (B7-2 [5]; [9]): increased B7-2 expression
B7-2 expression (B7-2 [5]; [10]): decreased
TNFα levels (TNFα; [9]): increased
TNFα (TNFα; [10]): concomitant decrease
B7-1 expression (B7-1 [6]; [9]): decreased B7-1 expression
B7-1 mRNA expression (B7-1 [6]; [10]): increased
B7-1 mRNA expression in lymph node cells (B7-1 mRNA; [7]): unaffected
B7-1 mRNA expression in lymph node cells (B7-1 mRNA; [8]): enhanced
